Holding throughout (experiment): relative viability (nuclei count vs DMSO), 5 days (fraction); higher = more cells survive
Compound in the test “Dasatinib + Trametinib”: Cc1nc(Nc2ncc(C(=O)Nc3c(C)cccc3Cl)s2)cc(N2CCN(CCO)CC2)n1 [Dasatinib] + CC(=O)Nc1cccc(-n2c(=O)n(C3CC3)c(=O)c3c(Nc4ccc(I)cc4F)n(C)c(=O)c(C)c32)c1 [Trametinib] (partner 0.02 µM)
In short, it runs like this:
(§1)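 Lung cancer cell lines were pin-tool dosed in 1536-well plates on the day after seeding, with either a lone drug or a fixed anchor-drug dose plus five library-drug doses (not always all listed) in √10 steps. Nuclei were counted on 4× images after 5 days. Relative viability is the ratio of treated-well to vehicle-well nuclei counts, with each value a median of duplicate plates.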

Compound in the test “ALW-II-49-7 + Tozasertib”: Cc1ccc(C(=O)Nc2cccc(C(F)(F)F)c2)cc1Nc1cncc(C(N)=O)c1 [ALW-II-49-7] + Cc1cc(Nc2cc(N3CCN(C)CC3)nc(Sc3ccc(NC(=O)C4CC4)cc3)n2)n[nH]1 [Tozasertib] (partner 0.1 µM)
Summed up: as §1

Compound in the test “Dasatinib + Crizotinib”: Cc1nc(Nc2ncc(C(=O)Nc3c(C)cccc3Cl)s2)cc(N2CCN(CCO)CC2)n1 [Dasatinib] + C[C@@H](Oc1cc(-c2cnn(C3CCNCC3)c2)cnc1N)c1c(Cl)ccc(F)c1Cl [Crizotinib] (partner 1 µM)
Summed up: as §1

Compound in the test “XMD13-2 + Crizotinib”: C1CC1C(=O)NC2=NNC3=C2C=CC(=C3)C4=CC(=CC=C4)C(=O)NC5CC5 [XMD13-2] + C[C@@H](Oc1cc(-c2cnn(C3CCNCC3)c2)cnc1N)c1c(Cl)ccc(F)c1Cl [Crizotinib] (partner 1 µM)
Summed up:
as §1

For UMC-11, the relative viability with Dasatinib + Trametinib (first compound 0.005 µM) amounted to 0.675; with Dasatinib + Trametinib (first compound 0.01581 µM) it was 0.63; with Dasatinib + Trametinib (first compound 0.05 µM), 0.631; in the test with Dasatinib + Trametinib (first compound 0.1581 µM), 0.358; with Dasatinib + Trametinib (first compound 0.5 µM) it was 0.317; with ALW-II-49-7 + Tozasertib (first compound 0.08 µM), 0.193. In addition, the relative viability with ALW-II-49-7 + Tozasertib (first compound 0.253 µM) amounted to 0.202; with ALW-II-49-7 + Tozasertib (first compound 0.8 µM), 0.21; with ALW-II-49-7 + Tozasertib (first compound 2.53 µM), 0.186; in the test with ALW-II-49-7 + Tozasertib (first compound 8 µM), 0.217; in the test with Dasatinib + Crizotinib (first compound 0.005 µM), 0.537; in the test with Dasatinib + Crizotinib (first compound 0.01581 µM) it was 0.389. Also, the relative viability with Dasatinib + Crizotinib (first compound 0.05 µM) is 0.359; with Dasatinib + Crizotinib (first compound 0.1581 µM), 0.258; with Dasatinib + Crizotinib (first compound 0.5 µM) it was 0.242; in the test with XMD13-2 + Crizotinib (first compound 0.05 µM), 0.58; in the test with XMD13-2 + Crizotinib (first compound 0.1581 µM) it was 0.557; in the test with XMD13-2 + Crizotinib (first compound 0.5 µM) it was 0.647. Moreover, the relative viability was determined as 0.467 with XMD13-2 + Crizotinib (first compound 1.581 µM) and 0.329 with XMD13-2 + Crizotinib (first compound 5 µM).
